Measurements taken from PubChem BioAssay (NCI).
“And” between values parts separate entries of the source, which are not always exact repeats. Identical values can stand only once.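 Five concentrations, 48 hours, 96-well plates. GI50 is the concentration that inhibits growth by half. TGI denotes the concentration required for complete inhibition of growth.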

Experiments:
Assay in all cases: NCI tumour cell line growth inhibition, 48 h
MDA-N = system: MDA-N
P388/ADR leukemia = system: P388/ADR leukemia
SN12K1 renal = system: SN12K1 renal
P388 leukemia = system: P388 leukemia

Compound	TGI (MDA-N)	other results
CN(C)CCNC(=O)c1ccc(NC(=O)c2nc([N+](=O)[O-])cn2C)cc1	> 100 µM	
CSc1nc(SC)c2c(CO)c(Br)n(Cc3ccccc3)c2n1	> 100 µM	
C=C(c1ccccc1)[C@@]1(O)CC[C@@H]1N(CC#N)Cc1ccccc1	40 µM	
COc1cccc(/C=N/C(/N=C/c2cccc(OC)c2O)c2cccc(OC)c2O)c1O	> 100 µM	
NCCCNCCCCNC(=O)C(O)NC(=O)CCCCCCN=C(N)N (centres undefined)	> 5000 µM	TGI (P388/ADR leukemia): 750 µM; TGI (SN12K1 renal): 750 µM; TGI (P388 leukemia): 511 µM; GI50 (MDA-N): > 750 µM
S=P(N1CC1)(N1CC1)N1CC1	426 µM and 671 µM	TGI (P388/ADR leukemia): 351 µM; TGI (SN12K1 renal): 373 µM; TGI (P388 leukemia): 328 µM; GI50 (MDA-N): 257 µM
Cc1cc(C)c(-n2c(-c3ccc(Br)cc3)cs/c2=N\N=C2C=C(C(C)(C)C)C(=O)C(C(C)(C)C)=C2)c(C)c1	> 100 µM	
COC(=O)/C=C/c1cc2c(cc1-c1c(C(=O)O)cc(OC)c(OC)c1OC)OCO2	> 10 µM	
CC(C)CC(NC(=O)OC(C)(C)C)C(=O)Nc1ccc(Nc2nc(F)nc(-c3c4ccccc4cn3C)n2)cc1 (centres undefined)	> 100 µM	
CCCCCCCc1cc2c3c(nc4ccccc42)C(=O)c2cccnc2-c3n1	9.12 µM	GI50 (MDA-N): 4.44 µM
COc1cc2c(cc1OC)C13CCN4CC5CCOC6CC(=O)N2C1C6C5CC43 (centres undefined)	> 100 µM	
O=C1c2ccccc2S(=O)(=O)c2cc(-c3nn[nH]n3)ccc21	> 100 µM	
O=c1c(O)c(-c2cc(O)c(O)c(O)c2)oc2cc(O)cc(O)c12	24.5 µM	
CN(Cc1cc(C(C)(C)C)cc(Br)c1O)Cc1cc(C(C)(C)C)cc(Br)c1O	15.9 µM	
CCOc1ccc2nc(NC(=O)C(=O)C(c3cnc4ccccc4n3)[N+](=O)[O-])sc2c1 (centres undefined)	> 100 µM	
